Reference: PMC4104029, “Mechanism of Action of Compound-13: An α1-Selective Small Molecule Activator of AMPK” (Chemistry & Biology, 2014)

Target: T1, PP2Cα (Homo sapiens, UniProt P35813)
T1 construct: purchased Division of Signal Transduction Therapy (DSTT, Dundee); host or cells: E. coli
Experiment: PP2Cα activity on synthetic peptide substrate
Type: biochemical
Conditions: synthetic peptide substrate EFLR(pT)SCGS
Procedure: AMPKα1β1γ1 or α2β1γ1 was dephosphorylated in vitro with PP2Cα in 50 mM HEPES pH 7.4, 10 mM MgCl2, 0.1 mM EGTA, 0.03% BRIJ-35, 1 mM DTT, and the indicated compounds for 15 min at 30°C. Mg^2+ was omitted from the negative control. Reactions were terminated by 20-fold dilution and storage on ice. AMPK activity was assayed under standard conditions in the presence of saturating AMP (200 μM). The results are expressed as percentage activity of the negative control. In control experiments, PP2Cα activity was determined in reactions containing 50 mM TES pH 7.4, 0.1 mM EGTA, 25 mM MgCl2, 0.01% BRIJ-35, 0.02% (v/v) 2-mercaptoethanol, and 100 μM EFLR(pT)SCGS (168–176 AMPKα2). Liberated phosphate was determined using malachite green ([Baykov et al., 1988]).
Supplemental Figure Legends:
Figure S1, related to Figures 1-3. […] (A) Heterotrimeric AMPK complexes (10 ng) produced in both Sf9 (Sigma and Signalchem) and E.coli (in our laboratory) were analysed by Western blotting using isoform specific antibodies. […]
Figure S3, related to Figure 2. […] Results are expressed as mean Pi incorporated in nmol.min-1.mg-1 ± SD. […] Results are expressed as fold increase in activity relative to controls in the absence of compound ± SD.
(E) C2 and AMP displace a GST-AMPKγ2 subunit fusion from ATP-γ-Sepharose. […] The presence of eluted AMPKγ2 was analysed by SDS-PAGE and staining with colloidal Coomassie. […]

T1 sequence (P35813 whole entry, species assumed): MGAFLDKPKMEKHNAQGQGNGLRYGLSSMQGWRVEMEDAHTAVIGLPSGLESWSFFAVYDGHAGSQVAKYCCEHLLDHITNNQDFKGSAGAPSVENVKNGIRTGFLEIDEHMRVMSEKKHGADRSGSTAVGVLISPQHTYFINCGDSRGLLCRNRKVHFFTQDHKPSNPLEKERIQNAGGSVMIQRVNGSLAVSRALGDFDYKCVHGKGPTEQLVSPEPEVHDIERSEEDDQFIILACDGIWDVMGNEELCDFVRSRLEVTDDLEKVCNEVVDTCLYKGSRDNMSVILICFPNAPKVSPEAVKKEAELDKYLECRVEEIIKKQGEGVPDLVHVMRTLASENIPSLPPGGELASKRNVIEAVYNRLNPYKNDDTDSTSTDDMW

Structure (SMILES): O=P(O)(O)c1ccc(-c2cc(O)on2)o1 [Compound C2, 5-(5-hydroxyl-isoxazol-3-yl)-furan-2-phosphonic acid]
- direct effect on PP2Cα activity: no direct effect
